Key:
Type in all cases: in vivo
[1] = tested on: Surinam grass (Brachiaria decumbens); assay: Test B postemergence
Outline: (§1)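 Post-treatment, species sat 13–15 days under greenhouse conditions before visual scoring against controls, 0 (no effect) through 100 (complete control). Application preemergence to sown seeds or postemergence at 1- to 4-leaf stage, using a non-phytotoxic solvent/surfactant formulation.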

[2] = tested on: barnyardgrass (Echinochloa crus-galli); assay: Test B postemergence
Outline: as §1

[3] = tested on: blackgrass (Alopecurus myosuroides); assay: Test B postemergence
Outline: as §1

[4] = tested on: cocklebur (Xanthium strumarium); assay: Test B postemergence
Outline: as §1

[5] = tested on: corn (Zea mays); assay: Test B postemergence
Outline: as §1

[6] = tested on: crabgrass (Digitaria sanguinalis); assay: Test B postemergence
Outline: as §1

[7] = tested on: giant foxtail (Setaria faberii); assay: Test B postemergence
Outline: as §1

[8] = tested on: lambsquarters (Chenopodium album); assay: Test B postemergence
Outline: as §1

[9] = tested on: morning glory (Ipomoea hederacea); assay: Test B postemergence
Outline: as §1

[10] = tested on: pigweed (Amaranthus retroflexus); assay: Test B postemergence
Outline: as §1

[11] = tested on: velvetleaf (Abutilon theophrasti); assay: Test B postemergence
Outline: as §1

[12] = tested on: wheat (Triticum aestivum); assay: Test B postemergence
Outline: as §1

[13] = tested on: wild oat (Avena fatua); assay: Test B postemergence
Outline: as §1

[14] = tested on: Sunflower; assay: Test C preemergence; conditions: Rate 125 g/ha; scale 0 to 100, 0 no effect, 100 complete control
[15] = tested on: bermudagrass (Cynodon dactylon); assay: Test C preemergence
Outline: (§2)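 Formulation: non-phytotoxic solvent mix incl. surfactant. Pre: applied right after planting. Post: 1–4-leaf seedlings. Read: visual 0–100, day 12–14, greenhouse.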

[16] = tested on: cocklebur (Xanthium strumarium); assay: Test C preemergence
Outline: as §2

[17] = tested on: crabgrass (Digitaria sanguinalis); assay: Test C preemergence
Outline: as §2

[18] = tested on: goosegrass (Eleusine indica); assay: Test C preemergence
Outline: as §2

[19] = tested on: kochia (Kochia scoparia); assay: Test C preemergence
Outline: as §2

[20] = tested on: soybean (Glycine max); assay: Test C preemergence
Outline: as §2

[21] = tested on: velvetleaf (Abutilon theophrasti); assay: Test C preemergence
Outline: as §2

[22] = tested on: Sunflower; assay: Test C preemergence; conditions: Rate 500 g/ha, visual evaluation after 12 to 14 days
[23] = tested on: Sunflower; assay: Test C preemergence; conditions: Rate 250 g/ha, scale 0 to 100, 0 no effect, 100 complete control
[24] = Rate 125 g/ha, scale 0 to 100, 0 no effect, 100 complete control
[25] = Rate 500 g/ha, scale 0 (no effect) to 100 (complete control), 13 to 15 days
[26] = preemergence, Rate 62 g/ha, scale 0 to 100
[27] = preemergence, Rate 500 g/ha, visual evaluation after 12 to 14 days
[28] = preemergence, Rate 250 g/ha, scale 0 to 100, 0 no effect, 100 complete control

SMILES: CCC(C)c1ccn(C2CCN(c3ccc(Br)c(OC)c3)C2=O)n1 (stereo not drawn) [Compound 142]
- Plant response rating, Surinam grass [1, 24]: 0
- Plant response rating, Surinam grass [1, 25]: 0
- Plant response rating, Barnyardgrass [2, 24]: 0
- Plant response rating, Barnyardgrass [2, 25]: 60
- Plant response rating, Blackgrass [3, 24]: 0
- Plant response rating, Blackgrass [3, 25]: 0
- Plant response rating, Cocklebur [4, 24]: 60
- Plant response rating, Cocklebur [4, 25]: 90
- Plant response rating, Corn [5, 24]: 0
- Plant response rating, Corn [5, 25]: 30
- Plant response rating, Crabgrass [6, 24]: 40
- Plant response rating, Crabgrass [6, 25]: 60
- Plant response rating, Foxtail, Giant [7, 24]: 30
- Plant response rating, Foxtail, Giant [7, 25]: 90
- Plant response rating, Lambsquarters [8, 24]: 70
- Plant response rating, Lambsquarters [8, 25]: 100
- Plant response rating, Morningglory [9, 24]: 70
- Plant response rating, Morningglory [9, 25]: 100
- Plant response rating, Pigweed [10, 24]: 60
- Plant response rating, Pigweed [10, 25]: 80
- Plant response rating, Velvetleaf [11, 24]: 40
- Plant response rating, Velvetleaf [11, 25]: 70
- Plant response rating, Wheat [12, 24]: 0
- Plant response rating, Wheat [12, 25]: 0
- Plant response rating, Wild Oat [13, 24]: 0
- Plant response rating, Wild Oat [13, 25]: 0
- Plant response rating, Sunflower [14]: 20
- Plant response rating, Bermudagrass [15, 24]: 100
- Plant response rating, Bermudagrass [15, 26]: 100
- Plant response rating (0 to 100 where 0 is no effect and 100 is complete control), Bermudagrass [15, 27]: 100
- Plant response rating, Bermudagrass [15, 28]: 100
- Plant response rating, Cocklebur [16, 24]: 30
- Plant response rating, Cocklebur [16, 26]: 0
- Plant response rating (0 to 100), Cocklebur [16, 27]: 60
- Plant response rating, Cocklebur [16, 28]: 30
- Plant response rating, Crabgrass [17, 24]: 100
- Plant response rating, Crabgrass [17, 26]: 100
- Plant response rating (0 to 100), Crabgrass [17, 27]: 100
- Plant response rating, Crabgrass [17, 28]: 100
- Plant response rating, Goosegrass [18, 24]: 100
- Plant response rating, Goosegrass [18, 26]: 100
- Plant response rating (0 to 100), Goosegrass [18, 27]: 100
- Plant response rating, Goosegrass [18, 28]: 100
- Plant response rating, Kochia [19, 24]: 100
- Plant response rating, Kochia [19, 26]: 100
- Plant response rating (0 to 100), Kochia [19, 27]: 100
- Plant response rating, Kochia [19, 28]: 100
- Plant response rating, Soybean [20, 24]: 70
- Plant response rating, Soybean [20, 26]: 30
- Plant response rating (0 to 100), Soybean [20, 27]: 100
- Plant response rating, Soybean [20, 28]: 100
- Plant response rating, Velvetleaf [21, 24]: 90
- Plant response rating, Velvetleaf [21, 26]: 10
- Plant response rating (0 to 100), Velvetleaf [21, 27]: 100
- Plant response rating, Velvetleaf [21, 28]: 100
- Plant response rating (0 to 100), Sunflower [22]: 80
- Plant response rating, Sunflower [23]: 80
